# According to US5912248A, “Excitatory amino acid receptor antagonists” (Eli Lilly and Company, priority 1996, dated 1999):
# System: metabotropic glutamate receptors
# Test: displacement of 1S,3R-ACPD-sensitive [^3 H]glutamate binding to rat brain cell membranes
# Conditions: crude membranes of rat forebrain
# Procedure: The binding of [^3 H]glutamate was conducted with crude membranes of rat forebrain as described by Schoepp and True, Neuroscience Lett., 145, 100-104 (1992) and Wright et al., J. Neurochemistry 63, 938-945, 1994.
IC50,Structure (SMILES),activity in the binding test (in words)
242 nM,"NC1(C(=O)O)CC(Sc2ccccc2)C2C(C(=O)O)C21 (stereo not drawn) [Example 1, 1SR,2RS,4SR,5SR,6SR-2-Amino-4-(phenylthio)bicyclo[3.1.0]hexane-2,6-dicarboxylic acid]",–
–,"NC1(C(=O)O)CC(SCc2ccco2)C2C(C(=O)O)C21 (stereo not drawn) [Example 8, 1SR,2RS,4RS,5SR,6SR-2-Amino-4-((2-furanylmethyl)thio)bicyclo[3.1.0]hexane-2,6-dicarboxylic acid]",essentially inactive
